Results taken from patent US20030091533A1, “Regulation of mononuclear phagocyte stimulation” (priority 2001, published 2003).

Columns and labels:
[1] = test system: ERK½; experiment: ERK½ MAP kinase phosphorylation immunoblot in PBM; assay type: cell-based, human; conditions: pretreatment before LPS 1 μg/ml; IL-9 20 ng/ml 24 hour; PD98059 1 hour
Method: PBM, isolated as described infra, were treated with 100 !M PD98059 (or with the same volume of DMSO as control) 1 hour before preincubation for 24 hour with medium or IL-9 (20 ng/ml). For the phosphoERK immunoblot assay (A), PBM were then stimulated by LPS (1 μg/ml) for the indicated periods of time (5 min to 20 hours) as compared to unstimulated cells (med), and processed for the detection of phosphorylated and total ERK½ as described in infra. For the oxidative burst (B), PBM were stimulated by LPS (1 μg/ml) for 20 hour and their oxidative capacity was evaluated through DCFH oxidation The results are presented in FIG. 7.
PBM were preincubated for 24 hour with medium alone (med) or IL-9, IL-4 or TGF-β1 (20 ng/ml), and stimulated by LPS (1 μg/ml) for the indicated periods of time (30 to 240 min). […]
PBM (1×10^6) were preincubated for 24 hour with medium alone or with cytokines (IL-9, IL-4 or TGF-β1 at 20 ng/ml) and stimulated from 5 min to 20 hour by 1 μg/ml LPS. […] Cell extracts (10 μg, as determined by the bicinchoninic acid-based assay) were subjected to SDS-12%PAGE, and electrotransferred onto a nitrocellulose membrane (Amersham) immunoblotted to detect and compare phosphorylated (threonine^202/tyrosine^204 residues) and total ERK½, using specific antibodies and enhanced chemiluminescence (New England Biolabs). […]

[2] = test system: LPS-stimulated PBM; experiment: Intracellular oxidative burst, DCFH oxidation assay, PBM; assay type: cell-based, human
Method: Intracellular oxidative capacity was assessed essentially as described by Bass et al., J. Immunol., 130:1910-1917 (1983) (incorporated herein by reference) as described infra.
Cells (0.2×10^6) were preincubated for 24 hour with IL-9 or IL-4 (20 ng/ml) in the presence of IFN-γ (200 U/ml) before stimulation for 20 hour with LPS (1 μg/ml). The intracellular oxidative capacity was measured through the DCFH oxidation assay as describe herein. FIG. 3 depicts the effect of IFN-γ on the inhibition mediated by IL-9 and IL-4 on the oxidative burst in LPS-stimulated PBM (A) and AM (B).
Table 1. Specific blockade of the IL-9 inhibitory effect on oxidative burst in LPS-15 stimulated PBM and AM by anti-hIL-9R mAb. Cells (0.2×10^6) were preincubated with neutralizing mAb against hIL-9R (AH9R7, 10 μg/ml), or with control mIgG2b (10 μg/ml), 1 hour before incubation with IL-9 (20 ng/ml) for 24 hour without removing mAb, and stimulated by LPS (1 μg/ml) for 20 h. Intracellular oxidative capacity was evaluated by the DCFH oxidation assay. Data are means±SEM obtained from three experiments, triplicate conditions being performed in each experiment. *P<0.001 compared with cells preincubated with IL-9 (with or without control mIgG2b).
Cells (0.2×10^6) were preincubated with neutralizing mAb, either against TGF-β1 (30 μg/ml) or against IL-10Rβ (30 μg/ml) or with control mIgG1 (30 μg/ml), 2 hour before incubation with IL-9 (20 ng/ml) for 24 hour without removing the mAb, and stimulated with LPS (1 μg/ml) for 20 h. Intracellular oxidative capacity was evaluated by the DCFH oxidation assay.
Intracellular oxidative capacity was assessed as described by Bass et al., (Bass et al., J. Immunol. 130:1910-1917 (1983)). Briefly, the PBM and AM samples were distributed in 96-well plates with flat bottoms (Falcon) to provide 0.2×10^6cells/well. The cells were preincubated for 24 hour at 37° C., 5% CO2 with cytokines (200 u/ml for IFN-y, 20 ng/ml for IL-9 and 20 ng/ml; for IL-4) in cRPMI before being stimulated for 20 hours with LPS (1 μg/ml) without removing the cytokines. At the end of incubation with cytokines and/or LPS, cells were loaded for 15 min with 15 μM DCFH-DA in cRPMI which, after passive penetration into cells, is hydrolyzed into nonfluorescent polar DCFH and trapped inside the cells. DCFH is then oxidized into highly fluorescent DCF according to the intracellular amount of hydrogen peroxide (H2O2) produced by the respiratory burst. After three washings with phosphate-buffered saline (PBS, pH 7.4), cells were lysed in 0.1% v/v Triton X100 (Sigma) in PBS, and fluorescence was quantified in a computerized microplate spectrofluorimeter (Packard Instruments, Downers Grove, Ill., USA) at 485 nm excitation/530 nm emission wavelengths. DCF concentrations were deduced from a standard curve of known concentrations of fluorescent DCF (ranging from 0.08 to 10 μM in lysis buffer) Results were corrected for total protein concentration determined in cell lysates by the bicinchoninic acid-based method (Pierce, Rockford, Ill., USA), and were expressed as nmoles DCF/mg cell protein.

[3] = test system: PMA-stimulated PBM; experiment: Extracellular O2- release, SOD-inhibitable reduction of ferricytochrome c; assay type: cell-based, human; conditions: PMA as stimulus, preliminary experiments
Method: Extracellular release of O2-derived radicals was evaluated by the SOD-inhibitable reduction of ferricytochrome c, as previously described (Pick, Methods in Enzymology, 132:407-421 (1986)) as described infra.
Extracellular release of O2-derived radicals was evaluated by the SOD-inhibitable reduction of ferricytochrome c, as previously described (Pick, Methods in Enzymology, 132:407-421 (1986)). Briefly, after incubation with IL-9 and IL-4 (20 ng/ml) for 1 hour, 4 hour 24 hour and 96 hour, cells were washed three times in Hank's balanced salt solution without phenol red (HBSS) to remove the phenol red-containing medium and incubated at 37° C. with HBSS containing 160 μM ferricytochrome c (plus 300 IU/ml SOD as control for each condition), and concomittantly with 100 ng/ml PMA when indicated. Optical density (OD) at 550 nm was then recorded in a plate spectrometer (Titertek Multiscan Plus MKII, Labsystems, Finland) after 60 min. The released amount of superoxide anion (O2^−) was deduced from the absorbance values at 550 nm (after subtraction of control values with SOD) using the cytochrome c extinction coefficient of 21×10^3 M^−1 cm^−1 (See Massey, Biochim Biophys Acta, 34: 255(1959)). Results were expressed as nmoles O2^− per 10^6 cells per hour (FIG. 1).

[4] = test system: LPS-stimulated PBM; experiment: Intracellular oxidative burst, DCFH oxidation assay, PBM; assay type: cell-based, human; conditions: PMA as stimulus, preliminary experiments
[5] = test system: surface of PBM and AM; experiment: IL-9 binding assay with hIL-9-mIgG3 chimeric molecule by FACS; design: species or system human; conditions: revealed by GAM3-FITC, compared with control
Method: To assess the IL-9 binding by PBM and AM, cells (0.2×10^6) were incubated with hIL-9-nIlgG3 chimeric protein and binding was assayed with GAM3-FITC. FIG. 4 is representative of five and three experiments for respectively IL-9R expression and IL-9 binding.
Binding of IL-9 to the surface of PBM and AM was assessed by incubating these cells (0.2×10^6) at 4° C. for 1 hour with hIL-9-mIgG3 chimeric molecule (10% COS cell supernatant). […] Cells incubated with mIgG3 before GAM3-FITC served as the negative control. FACS analysis of the cell-associated fluorescence was then performed as for the assessment of IL-9R expression.
Binding of IL-9 to the surface of PBM and AM was assessed by incubating these cells (0.2×10^6) at 4° C. for 1 hour with hIL-9-mIgG3 chimeric molecule (10%, v/v, COS cell supernatant). […] Cells incubated with mIgG3 before GAM3-FITC or only with GAM3-FITC served as negative controls. FACS analysis of the cell-associated fluorescence was then performed as for the assessment of IL-9R expression.

## COc1cccc(-c2cc(=O)c3ccccc3o2)c1N [PD98059, reference compound]
[1]
  LPS-induced ERK½ phosphorylation in PBM: prevented
[2]; PD98059 1 hour before preincubation, LPS 20 hour, DCFH oxidation
  effect on LPS-stimulated ROI production (oxidative burst) in monocytes: completely suppressed

## CCCCCCCCCCCCCC(=O)O[C@@H]1[C@@H](C)[C@@]2(O)[C@@H](C=C(CO)C[C@]3(O)C(=O)C(C)=C[C@@H]23)[C@@H]2C(C)(C)[C@]12OC(C)=O [PMA, phorbol myristate acetate, reference compound]
[3]
  cytochrome c reduction by PBM: strongly stimulated
[4]
  DCFH oxidation by PBM: only a minor effect

## TGF-β1: monocyte/macrophage deactivating factor, 20 ng/ml
[2]; Table 3, PBM, mAb 30 μg/ml 2 hour before IL-9 20 ng/ml 24 hour, LPS 1 μg/ml 20 h, means±SD, Medium 10.3 ± 0.2
  Oxidative burst (nmoles DCF/mg protein): 10.2 ± 0.5 nmoles DCF/mg protein
[2]; preincubation 24 hour with cytokine 20 ng/ml, then LPS 1 μg/ml 20 hour, without IFN-γ
  LPS-stimulated oxidative burst in PBM: 10.2±0.5 nmoles DCF/mg protein

## IL-9-mIgG3: human IL-9 fused to hinge, CH2 and CH3 domains of murine IgG3 heavy chain, COS cell supernatant
[5]
  binding of IL-9 on the surface of AM: significant binding
  binding of IL-9 on the surface of PBM: significant binding
